Assay results as given in patent US9975853B2, “Tetrahydroisoquinolinone derivatives and their use in the inhibition of the HSP70 protein” (Julius-Maximilians-Universitaet Wuerzburg, priority 2014, dated 2018).
Read-outs that look alike come from different tables or passages of the source.

Columns and labels:
[1] = tested on: INA-6; experiment: Cell viability assay (annexin V-FITC/propidium iodide, flow cytometry) in INA-6 multiple myeloma cells; assay type: cell-based, human; conditions: Homo sapiens, INA-6, 72 h, read-out: INA-6 EC50(±sdv)
Description: The effect of pharmacological Hsp70 inhibition on cell viability was analyzed after 72 hours of treatment in both non-malignant (mononuclear cells from the peripheral blood) and malignant lymphocytes (multiple myeloma cells). The mononuclear cells were separated from the peripheral blood of healthy donors by Ficoll-Hypaque density gradient centrifugation. The human cell line INA-6 represents a well-established model for multiple myeloma. The percentage of viable and apoptotic cell fractions was assessed using an annexin V-FITC/propidium iodide (PI) staining kit (Bender MedSystems, Vienna, Austria) according to manufacturer's instructions. In brief, cells were washed in PBS, incubated for 10 min in 100 ml binding buffer (10 mM HEPES/NaOH, pH 7.4, 140 mM NaCl, 2.5 mM CaCl2) containing 2.5 ml annexin V-FITC mix and 1 mg/ml propidium iodide (PI), subsequently diluted with 100 ml binding buffer and analyzed by flow cytometry (FACSCalibur/CELLQuest; Becton Dickinson, Heidelberg, Germany). Whereas viable cells are negative for both, annexin V-FITC and PI, early apoptotic cells show a positive annexin V-FITC staining, and cells in a late apoptotic stage which lose their membrane integrity additionally incorporate DNA-binding PI. To establish kill curves, concentrations of the tested compounds were titrated, and the measured viable cell fractions were further analyzed using the Prism Calculation Software (GraphPad Software Inc., La Jolla, USA).
In FIG. 2A Western blot analyses of caspases 9 and 3, and the caspase substrate PARP (upper panel), and viability analyses (lower panel) of INA-6 MM cells upon treatment with trans-7b for 24 hours are shown. INA-6 cells were either incubated with DMSO (as a solvent control) or with 0.6 μM of trans-7b, and additionally incubated either with DMSO or the pan-caspase inhibitor Z-VAD-FMK prior to analyses by Western or viability assessment (without Z-VAD-FMK co-treatment) by Annexin V/propidum iodide double staining. For Western analyses INA-6 cell pellets were dissolved in lysis buffer (20 mM HEPES (pH 7.9), 350 mM NaCl, 1 mM MgCl2, 0.5 mM EDTA, 0.1 mM EGTA, 1% NP40, 0.5 mM dithiothreiol (DTT), 1 mM Na3VO4, 0.1 mM PMSF and 1 μg/ml aprotinin). Lysates were cleared by centrifugation, measured by quantitative protein assay (Bio-Rad, München, Germany) and subjected to SDS gel electrophoresis. Proteins were transferred onto nitrocellulose membranes (Schleicher & Schuell, Dassel, Germany), incubated with antibodies specific for caspase 9, caspase 3 or PARP (Cell Signaling Technology, Frankfurt a.Main, Germany) according to standard procedures and visualized with secondary anti-rabbit horseradish peroxidase (HRP)-conjugated antibodies using an enhanced chemoluminescence detection system (ECL, Amersham, Freiburg, Germany). […] Annexin V/propidium iodide (PI) staining was performed using a fluorescein isothiocyanate (FITC) conjugated recombinant human annexin/propidium iodide kit (BenderMedSystems, Vienna, Austria) according to the manufacturer's instructions. INA-6 cells were washed in PBS, incubated for 15 minutes in 100 ml binding buffer (10 mM HEPES/NaOH, pH 7.4, 140 mM NaCl, 2.5 mM CaCl2) containing 2.5 mL annexin V-FITC mix and 1 mg/ml PI and analyzed by flow cytometry (FACSCalibur/CELLQuest; Becton Dickinson, Heidelberg, Germany). Whereas early apoptosis is characterized by positive annexin V-FITC staining reaction, cells in a late apoptotic stage lose their membrane integrity and additionally incorporate PI. Thus, the fraction of viable cells remains negative for both annexin V-FITC and PI. […] Based on the above described experiments also viability analyses of INA-6 in comparison with non-malignant PBMCs were performed choosing a longer incubation time (72 hours) as shown in FIG. 2B or C. Raw data of three independent experiments have been calculated to establish means, standard deviation and dose-effect curves of trans-7b.

[2] = INA-6 multiple myeloma cells, 72 hours of treatment, viable cell fraction, mean of at least three determinations

Compound	EC50 [1, 2] [nM]	also measured
COc1ccc(N2C(=O)c3ccccc3[C@H](C(=O)O)[C@@H]2c2ccccc2)cc1 (relative stereo) [cis-6c, Sodium cis-2-(4-methoxyphenyl)-1-oxo-3-phenyl-1,2,3,4-tetrahydroisoquinoline-4-carboxylate]	–	EC50 [1]: > 100000 nM
COc1ccc([C@H]2[C@H](C(=O)O)c3ccccc3C(=O)N2c2ccc(OC)cc2)cc1 (relative stereo) [cis-6d, Sodium trans-2,3-bis(4-methoxyphenyl)-1-oxo-1,2,3,4-tetrahydroisoquinoline-4-carboxylate]	> 100000	–
O=C(O)[C@@H]1c2ccccc2C(=O)N(c2ccc(F)cc2)[C@H]1c1ccc(F)cc1 (relative stereo) [trans-5e, trans-2,3-Bis(4-fluorophenyl)-1-oxo-1,2,3,4-tetrahydroisoquinoline-4-carboxylic acid]	–	melting point: 116 to 118 °C
O=C(O)[C@@H]1c2ccccc2C(=O)N(c2ccc(Cl)cc2)[C@H]1c1ccc(Cl)cc1 (relative stereo) [trans-5f, trans-2,3-Bis(4-chlorophenyl)-1-oxo-1,2,3,4-tetrahydroisoquinoline-4-carboxylic acid]	–	melting point: 116 to 127 °C
COc1ccc([C@H]2[C@H](C(=O)O)c3ccccc3C(=O)N2c2ccc(Oc3ccccc3)cc2)cc1 (relative stereo) [trans-5h, trans-3-(4-Methoxyphenyl)-1-oxo-2-(4-phenoxyphenyl)-1,2,3,4-tetrahydroisoquinoline-4-carboxylic acid]	–	melting point: 109 to 115 °C
COc1ccc([C@H]2[C@H](C(=O)O)c3ccccc3C(=O)N2c2ccccc2)cc1 (relative stereo) [trans-6b, Sodium trans-3-(4-methoxyphenyl)-1-oxo-2-phenyl-1,2,3,4-tetrahydroisoquinoline-4-carboxylate]	–	EC50 [1]: 2000 nM
COc1ccc(N2C(=O)c3ccccc3[C@@H](C(=O)O)[C@@H]2c2ccccc2)cc1 (relative stereo) [trans-6c, Sodium trans-2-(4-methoxyphenyl)-1-oxo-3-phenyl-1,2,3,4-tetrahydroisoquinoline-4-carboxylate]	–	EC50 [1]: 64000 nM
COc1ccc([C@H]2[C@@H](C(=O)O)c3ccccc3C(=O)N2c2ccc(OC)cc2)cc1 (relative stereo) [trans-6d, Sodium cis-2,3-bis(4-methoxyphenyl)-1-oxo-1,2,3,4-tetrahydroisoquinoline-4-carboxylate]	7900	–
COc1ccc(N2C(=O)c3ccccc3C(C(=O)O)C2c2ccccc2)cc1 (stereo not drawn) [cis-5c, cis-2-(4-Methoxyphenyl)-1-oxo-3-phenyl-1,2,3,4-tetrahydroisoquinoline-4-carboxylic acid]	> 100000	melting point: 208 to 209 °C
Cc1cccc(NC(=O)C2c3ccccc3C(=O)N(c3ccccc3)C2c2ccccc2)n1 (stereo not drawn) [trans-7a, trans-N-(6-Methylpyridin-2-yl)-1-oxo-2,3-diphenyl-1,2,3,4-tetrahydroisoquinoline-4-carboxamide]	2300	–
COc1ccc(C2C(C(=O)Nc3cccc(C)n3)c3ccccc3C(=O)N2c2ccc(OC)cc2)cc1 (stereo not drawn) [trans-7d, trans-2,3-Bis(4-methoxyphenyl)-N-(6-methylpyridin-2-yl)-1-oxo-1,2,3,4-tetrahydroisoquinoline-4-carboxamide]	680	–
COc1ccc(C2C(C(=O)Nc3cccc(C)c3)c3ccccc3C(=O)N2c2ccc(OC)cc2)cc1 (stereo not drawn) [trans-7e, trans-2,3-Bis(4-methoxyphenyl)-1-oxo-N-(m-tolyl)-1,2,3,4-tetrahydroisoquinoline-4-carboxamide]	–	EC50 [1]: 880 nM
COc1ccc(C2C(C(=O)Nc3ccccn3)c3ccccc3C(=O)N2c2ccc(OC)cc2)cc1 (stereo not drawn) [trans-7f, trans-2,3-Bis(4-methoxyphenyl)-1-oxo-N-(pyridin-2-yl)-1,2,3,4-tetrahydroisoquinoline-4-carboxamide]	530	–
CNC(=O)C1c2ccccc2C(=O)N(c2ccc(OC)cc2)C1c1ccc(OC)cc1 (stereo not drawn) [trans-7g, trans-2,3-Bis(4-methoxyphenyl)-N-methyl-1-oxo-1,2,3,4-tetrahydroisoquinoline-4-carboxamide]	7100	–
COc1ccc(C2C(C(=O)N(C)C)c3ccccc3C(=O)N2c2ccc(OC)cc2)cc1 (stereo not drawn) [trans-7h, trans-2,3-Bis(4-methoxyphenyl)-N,N-dimethyl-1-oxo-1,2,3,4-tetrahydroisoquinoline-4-carboxamide]	> 100000	–
COc1ccc(C2C(C(=O)Nc3cccc4c3CCCC4)c3ccccc3C(=O)N2c2ccc(OC)cc2)cc1 (stereo not drawn) [trans-7i, trans-2,3-Bis(4-methoxyphenyl)-1-oxo-N-(5,6,7,8-tetrahydronaphthalen-1-yl)-1,2,3,4-tetrahydroisoquinoline-4-carboxamide]	> 100000	–

Further lines, with some results ahead:

EC50 [1, 2] [nM]	Compound	also measured
950	COc1ccc(C2C(C(=O)Nc3cc(C)cc(C)c3)c3ccccc3C(=O)N2c2ccc(OC)cc2)cc1 (stereo not drawn) [trans-7j, trans-N-(3,5-Dimethylphenyl)-2,3-bis(4-methoxyphenyl)-1-oxo-1,2,3,4-tetrahydroisoquinoline-4-carboxamide]	–
6400	Cc1cccc(NC(=O)C2c3ccccc3C(=O)N(c3ccc(F)cc3)C2c2ccc(F)cc2)n1 (stereo not drawn) [trans-7k, trans-2,3-Bis(4-fluorophenyl)-N-(6-methylpyridin-2-yl)-1-oxo-1,2,3,4-tetrahydroisoquinoline-4-carboxamide]	–
2900	Cc1cccc(NC(=O)C2c3ccccc3C(=O)N(c3ccc(Cl)cc3)C2c2ccc(Cl)cc2)n1 (stereo not drawn) [trans-7l, trans-2,3-Bis(4-chlorophenyl)-N-(6-methylpyridin-2-yl)-1-oxo-1,2,3,4-tetrahydroisoquinoline-4-carboxamide]	–
43000	Cc1cc(C)cc(C2C(C(=O)Nc3cccc(C)n3)c3ccccc3C(=O)N2c2cc(C)cc(C)c2)c1 (stereo not drawn) [trans-7m, trans-2,3-Bis(3,5-dimethylphenyl)-N-(6-methylpyridin-2-yl)-1-oxo-1,2,3,4-tetrahydroisoquinoline-4-carboxamide]	–
> 100000	COc1ccc(C2C(C(=O)Nc3cccc(C)n3)c3ccccc3C(=O)N2c2ccc(Oc3ccccc3)cc2)cc1 (stereo not drawn) [trans-7n, trans-3-(4-Methoxyphenyl)-N-(6-methylpyridin-2-yl)-1-oxo-2-(4-phenoxyphenyl)-1,2,3,4-tetrahydroisoquinoline-4-carboxamide]	–
30000	Cc1cccc(NC(=O)C2c3ccccc3C(=O)N(c3ccc(O)cc3)C2c2ccc(O)cc2)n1 (stereo not drawn) [trans-7o, trans-2,3-Bis(4-hydroxyphenyl)-N-(6-methylpyridin-2-yl)-1-oxo-1,2,3,4-tetrahydroisoquinoline-4-carboxamide]	–
200	COc1ccc(C2C(C(=O)Nc3ncccn3)c3ccccc3C(=O)N2c2ccccc2)cc1 (stereo not drawn) [trans-7p, trans-3-(4-Methoxyphenyl)-1-oxo-2-phenyl-N-(pyrimidin-2-yl)-1,2,3,4-tetrahydroisoquinoline-4-carboxamide]	–
570	COc1ccc(C2C(C(=O)Nc3cccnc3)c3ccccc3C(=O)N2c2ccccc2)cc1 (stereo not drawn) [trans-7q, trans-3-(4-Methoxyphenyl)-1-oxo-2-phenyl-N-(pyridin-3-yl)-1,2,3,4-tetrahydroisoquinoline-4-carboxamide]	–
340	COc1ccc(C2C(C(=O)Nc3cc(C)cc(C)n3)c3ccccc3C(=O)N2c2ccccc2)cc1 (stereo not drawn) [trans-7r, trans-N-(4,6-Dimethylpyridin-2-yl)-3-(4-methoxyphenyl)-1-oxo-2-phenyl-1,2,3,4-tetrahydroisoquinoline-4-carboxamide]	–
